The text below walks through data of ChEMBL document CHEMBL1123608, “In vivo antitumor activity of 6-benzyl-1,3-benzodioxole derivatives against the P388, L1210, B16, and M5076 murine models” (1987).

The source made the active and inactive calls. The rule behind the calls is not given here.

Assay [1] can be described thus: Ability to inhibit the dibutyryl-cAMP-induced change of an immature glioma cell to a mature, differentiated astrocyte by in vitro astrocytoma assay at 100 ug/mL dose (Experiment #2)value may range from 71 to 90. The class given is functional, Mus musculus.
The nature of assay [2]: Ability to inhibit the dibutyryl-cAMP-induced change of an immature glioma cell to a mature, differentiated astrocyte by in vitro astrocytoma assay at 10 ug/mL dose (Experiment #1); value may range from 31 to 50. In kind it is functional, Mus musculus.
Assay [3] deals with Mus musculus. Nature of the assay: In vivo antitumor activity against the B16 melanoma cell line expressed as percent increase in life span; IA means inactive. The class given is functional, organism-based.
A short description of assay [4]: Ability to inhibit the dibutyryl-cAMP-induced change of an immature glioma cell to a mature, differentiated astrocyte by in vitro astrocytoma assay at 1 ug/mL dose (Experiment #1); value may range from 16 to 30. In kind it is functional, Mus musculus.
For assay [5], the system named is Mus musculus. As to the kind of experiment: The percent increase in life span on P388 cells which were inoculated intraperitoneally in CD2F1 mice at 100 mg/kg dose placed at ranking order 2. The note with it: P388, ip, route intraperitoneal. The class given is functional.
Assay [6] deals with Mus musculus. As to the kind of experiment: Percent increase in life span (ILS) was measured on P388 cells which were inoculated intraperitoneally in CD2F1 mice. The class given is functional.
Assay [7] relates to Mus musculus. Nature of the assay: In vivo antitumor activity against the M5076 reticulum cell sarcoma expressed as percent increase in life span; IA means inactive. In kind it is functional, organism-based.
Assay [8] in a line: Ability to inhibit the dibutyryl-cAMP-induced change of an immature glioma cell to a mature, differentiated astrocyte by in vitro astrocytoma assay at 100 ug/mL dose (Experiment #1); value may range from 91 to up. The class given is functional, Mus musculus.
In assay [9] the test system is Mus musculus. Nature of the assay: In vivo antitumor activity against the L1210 leukemia cell line expressed as percent increase in life span; IA means inactive. The class given is functional, organism-based.
Assay [10] in a line: Ability to inhibit the dibutyryl-cAMP-induced change of an immature glioma cell to a mature, differentiated astrocyte by in vitro astrocytoma assay at 1 ug/mL dose (Experiment #2) value may range from 16 to 30. The class given is functional, Mus musculus.
Assay [11] can be described thus: Ability to inhibit the dibutyryl-cAMP-induced change of an immature glioma cell to a mature, differentiated astrocyte by in vitro astrocytoma assay at 10 ug/mL dose (Experiment #2); value may range from 31 to 50. The class given is functional, Mus musculus.
In assay [12] the test system is Mus musculus. Nature of the assay: The percent increase in life span on P388 cells which were inoculated intraperitoneally in CD2F1 mice at 100 mg/kg dose placed at ranking order 1. The class given is functional. To be noted: P388, ip, route intraperitoneal.
In assay [13] the test system is Mus musculus. Nature of the assay: The percent increase in life span on P388 cells which were inoculated intraperitoneally in CD2F1 mice at 5 mg/kg dose placed at ranking order 1. The class given is functional. The note with it: P388, ip, route intraperitoneal.
Assay [14] has as its system Mus musculus. Nature of the assay: The percent increase in life span on P388 cells which were inoculated intraperitoneally in CD2F1 mice at 200 mg/kg dose placed at ranking order 2. In kind it is functional. To be noted: P388, ip, route intraperitoneal.
Assay [15] deals with Mus musculus. As to the kind of experiment: The percent increase in life span on P388 cells which were inoculated intraperitoneally in CD2F1 mice at 50 mg/kg dose placed at ranking order 3. The class given is functional. The note with it: P388, ip, route intraperitoneal.
Assay [16] has as its system Mus musculus. Nature of the assay: In vivo antitumor activity against the M5076 reticulum cell sarcoma expressed as percent increase in life span at 32 mg/kg dose. The class given is functional.
Assay [17] is filed under the species Mus musculus. Nature of the assay: P388 activity determined as number of cured out of the number tested in 6 CD2F1 mice. In kind it is functional.
The subject of assay [18] is Mus musculus. Nature of the assay: In vivo antitumor activity against the L1210 leukemia cell line expressed as percent increase in life span at 4 mg/kg dose. In kind it is functional.
Assay [19] deals with Mus musculus. As to the kind of experiment: In vivo antitumor activity against the L1210 leukemia cell line determined as number of cured out of the number tested at 8 mg/kg dose ( out of 8 mice). In kind it is functional.
The test system of assay [20] is Mus musculus. Nature of the assay: In vivo antitumor activity against the L1210 leukemia cell line expressed as percent increase in life span at 8 mg/kg dose. The class given is functional.
The subject of assay [21] is Mus musculus. Nature of the assay: In vivo antitumor activity against the B16 melanoma cell line expressed as percent increase in life span at 8 mg/kg dose. In kind it is functional.
The subject of assay [22] is Mus musculus. As to the kind of experiment: In vivo antitumor activity against the L1210 leukemia cell line determined as number of cured out of the number tested at 4 mg/kg dose ( out of 10 mice). In kind it is functional.
Assay [23] relates to Mus musculus. Nature of the assay: Percent increase in life span (ILS) was measured on P388 cells which were inoculated intraperitoneally in CD2F1 mice at 16 mg/kg. The class given is functional. To be noted: P388, ip, route intraperitoneal.
The test system of assay [24] is Mus musculus. Nature of the assay: In vivo antitumor activity against the B16 melanoma cell line determined as number of cured out of the number tested at 8 mg/kg dose ( out of 6 mice). In kind it is functional.
Assay [25] deals with Mus musculus. As to the kind of experiment: In vivo antitumor activity against the B16 melanoma cell line determined as number of cured out of the number tested at 10 mg/kg dose ( out of 10 mice). In kind it is functional.
The subject of assay [26] is Mus musculus. As to the kind of experiment: In vivo antitumor activity against the B16 melanoma cell line expressed as percent increase in life span at 10 mg/kg dose. The class given is functional.
The nature of assay [27]: Ability to inhibit the dibutyryl-cAMP-induced change of an immature glioma cell to a mature, differentiated astrocyte by in vitro astrocytoma assay at 10 ug/mL dose (Experiment #2); value may range from 91 to up. In kind it is functional, Mus musculus.
The nature of assay [28]: Ability to inhibit the dibutyryl-cAMP-induced change of an immature glioma cell to a mature, differentiated astrocyte by in vitro astrocytoma assay at 1 ug/mL dose (Experiment #2); value may range from 51 to 70. The class given is functional, Mus musculus.
A short description of assay [29]: Ability to inhibit the dibutyryl-cAMP-induced change of an immature glioma cell to a mature, differentiated astrocyte by in vitro astrocytoma assay at 1 ug/mL dose (Experiment #1); value may range from 51 to 70. The class given is functional, Mus musculus.
Assay [30] in a line: Ability to inhibit the dibutyryl-cAMP-induced change of an immature glioma cell to a mature, differentiated astrocyte by in vitro astrocytoma assay at 0.1 ug/mL dose (Experiment #2); value may range from 0 to 5. In kind it is functional, Mus musculus.
Assay [31] can be described thus: Ability to inhibit the dibutyryl-cAMP-induced change of an immature glioma cell to a mature, differentiated astrocyte by in vitro astrocytoma assay at 0.1 ug/mL dose (Experiment #1); value may range from 0 to 5. In kind it is functional, Mus musculus.
Assay [32] is described as follows: Ability to inhibit the dibutyryl-cAMP-induced change of an immature glioma cell to a mature, differentiated astrocyte by in vitro astrocytoma assay at 10 ug/mL dose (Experiment #1); value may range from 91 to up. The class given is functional, Mus musculus.
For assay [33], the system named is Mus musculus. Nature of the assay: In vivo antitumor activity against the M5076 reticulum cell sarcoma expressed as percent increase in life span at 4 mg/kg dose. In kind it is functional.
In assay [34] the test system is Mus musculus. As to the kind of experiment: In vivo antitumor activity against the B16 melanoma cell line expressed as percent increase in life span at 1 mg/kg dose. The class given is functional.
The test system of assay [35] is Mus musculus. As to the kind of experiment: Percent increase in life span (ILS) was measured on P388 cells which were inoculated intraperitoneally in CD2F1 mice at 8 mg/kg. The class given is functional. The note with it: P388, ip, route intraperitoneal.

For `CCOc1cc2c(cc1C(C)c1ccc(OC)cc1)OCO2` (stereo not given), the Astrocyte reversal is recorded as 90% in [1]; 50% in [2]; 30% in assay [4]; 91% in [8]; 30% in assay [10]; 50% in assay [11]. The ILS result with Mus musculus [3], in the assay on Mus musculus [7] and in the assay with Mus musculus [9] was “inactive” in each case. Moreover, the results for the ILS at 100 mg/kg in the assay on Mus musculus [5] and with Mus musculus [12] were 23% and 25%, respectively. Further, in the assay on Mus musculus [6], the ILS – broadly, how much longer treated animals lived than controls – came to 25%.
In the case of `CCOc1ccc(C(C)c2cc3c(cc2OCC)OCO3)cc1` (stereo not given), the increase in lifespan (ILS) at 5 mg/kg in the assay with Mus musculus [13] was determined as 71%. This compound also showed an ILS at 200 mg/kg in the assay with Mus musculus [14] of 56%. For the same compound, in the assay on Mus musculus [6], the increase in life span (ILS) is recorded as 71%. This compound gave an ILS at 50 mg/kg in the assay with Mus musculus [15] of 36%.
As for `O=c1[nH]cc(F)c(=O)[nH]1` [FLUOROURACIL], the ILS with Mus musculus [6] came to 73%.
The compound `COc1cc([C@@H]2c3cc4c(cc3[C@@H](O[C@@H]3O[C@@H]5CO[C@@H](C)O[C@H]5[C@H](O)[C@H]3O)[C@H]3COC(=O)[C@H]23)OCO4)cc(OC)c1O` [ETOPOSIDE] gave an ILS at 32 mg/kg in the assay on Mus musculus [16] (Mus musculus, M5076, dose 32 mg/kg) of 87%. This compound also displayed an increase in lifespan (ILS) with Mus musculus [16] (dose 32 mg/kg) of 72%. Besides, the No. of cures in the assay filed under Mus musculus [17] came to 3; in the assay with Mus musculus [19], 4; with Mus musculus [22], 2; in the assay on Mus musculus [24], 3; in the assay with Mus musculus [25], 6. In addition, in the assay with Mus musculus [18], the ILS at 4 mg/kg worked out at 118%. The results for the ILS at 8 mg/kg with Mus musculus [20] and with Mus musculus [21] were > 511% and > 176%, respectively. For the same compound, in the assay on Mus musculus [23], the ILS at 16 mg/kg worked out at 219%. In the assay with Mus musculus [26], the ILS at 10 mg/kg is > 185%.
For the compound `COc1cc2c(c(OC)c1OC)-c1ccc(OC)c(=O)cc1[C@@H](NC(C)=O)CC2` [COLCHICINE], the Astrocyte reversal in [27] was found to be 91%; in assay [28], 51%; in [29] it was 51%; in [30], 0%; in assay [31] it was 0%; in [32], 91%.
Consider `COc1cc([C@@H]2c3cc4c(cc3[C@H](O)[C@H]3COC(=O)[C@H]23)OCO4)cc(OC)c1OC` [PODOFILOX], for which, in the assay on Mus musculus [33], the ILS at 4 mg/kg came out at 46%. In addition, the ILS entry with Mus musculus [3] and in the assay on Mus musculus [9] was “inactive” in each case. This compound also displayed an ILS at 1 mg/kg in the assay with Mus musculus [34] of 28%. In the assay with Mus musculus [35], this compound came in with an ILS at 8 mg/kg of 52%.
